Measurements from ChEMBL document CHEMBL1201862, “PubChem BioAssay data set” (2004).
The source made the active and inactive calls.

Columns and labels:
[1] = target: Runt-related transcription factor 1/Core-binding factor subunit beta (Homo sapiens, UniProt Q01196+Q13951); assay: Confirmation of compounds inhibiting the binding between the RUNX1 Runt domain and CBFb-SMMHC via a fluorescence resonance energy transfer (FRET) assay. [Related pubchem assays (depositor defined):AID1434, AID1438, AID1496, AID1550, AID1645]; format: protein assay
[2] = target: T1, Heat shock factor protein 1 (Mus musculus, UniProt P38532); assay: inhibition of MG132-induced HSE-luciferase signal, confirmation, cell-based, NIH3T3, luminescence, dose retest (AID 2382); format: functional;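 further: NIH3T3 fibroblasts with HSF1-driven luciferase reporter stressed by proteasome inhibitor MG132; luminescence from HSF1-driven luciferase expression after 8 hours of MG132 stress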
T1 sequence (P38532 whole entry): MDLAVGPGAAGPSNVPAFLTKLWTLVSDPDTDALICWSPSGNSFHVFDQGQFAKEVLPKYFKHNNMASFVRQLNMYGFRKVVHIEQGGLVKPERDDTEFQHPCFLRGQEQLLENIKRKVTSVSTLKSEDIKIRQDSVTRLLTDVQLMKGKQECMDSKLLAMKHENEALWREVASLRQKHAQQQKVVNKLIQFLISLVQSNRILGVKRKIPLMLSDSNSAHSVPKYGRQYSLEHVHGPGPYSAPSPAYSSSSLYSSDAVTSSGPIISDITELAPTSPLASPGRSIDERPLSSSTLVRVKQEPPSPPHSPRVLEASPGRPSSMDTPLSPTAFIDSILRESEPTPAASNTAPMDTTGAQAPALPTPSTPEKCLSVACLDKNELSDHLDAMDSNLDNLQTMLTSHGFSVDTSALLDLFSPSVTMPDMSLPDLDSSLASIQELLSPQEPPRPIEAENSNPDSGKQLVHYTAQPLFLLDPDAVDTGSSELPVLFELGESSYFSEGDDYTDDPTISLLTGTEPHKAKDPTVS

[3] = target: T2, Corticotropin-releasing factor receptor 2/Corticotropin-releasing factor-binding protein (Homo sapiens, UniProt P24387+Q13324); assay: activators of CRF receptor 2 with binding protein – uHTS hits, confirmation (AID 602473); format: functional; settings: read-out: EC50_Mean
T2 sequence (Q13324 whole entry): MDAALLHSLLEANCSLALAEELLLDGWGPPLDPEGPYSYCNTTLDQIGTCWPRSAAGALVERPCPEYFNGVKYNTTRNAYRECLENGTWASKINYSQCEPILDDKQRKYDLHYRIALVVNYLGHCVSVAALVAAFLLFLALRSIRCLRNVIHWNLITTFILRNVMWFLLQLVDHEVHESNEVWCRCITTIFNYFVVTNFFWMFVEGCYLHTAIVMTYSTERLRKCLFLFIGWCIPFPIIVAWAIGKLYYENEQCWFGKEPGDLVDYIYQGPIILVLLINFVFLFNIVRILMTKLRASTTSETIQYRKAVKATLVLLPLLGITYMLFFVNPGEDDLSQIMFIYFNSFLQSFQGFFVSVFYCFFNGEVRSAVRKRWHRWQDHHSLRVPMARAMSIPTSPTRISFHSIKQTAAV
T2 sequence (P24387 whole entry): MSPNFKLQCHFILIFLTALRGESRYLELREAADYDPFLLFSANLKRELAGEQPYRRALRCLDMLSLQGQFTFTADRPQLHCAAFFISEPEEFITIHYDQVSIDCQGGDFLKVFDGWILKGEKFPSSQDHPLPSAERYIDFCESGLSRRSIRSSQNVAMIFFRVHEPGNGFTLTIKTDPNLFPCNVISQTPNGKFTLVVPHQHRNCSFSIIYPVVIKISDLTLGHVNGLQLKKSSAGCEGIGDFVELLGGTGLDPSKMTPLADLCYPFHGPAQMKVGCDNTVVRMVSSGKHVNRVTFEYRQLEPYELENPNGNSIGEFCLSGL

[4] = target: T3, E3 ubiquitin-protein ligase XIAP (Homo sapiens, UniProt P98170); assay: XIAP antagonists, biochemical, IAP family, fluorescence polarization (AID 1018); format: functional
[5] = target: T3, E3 ubiquitin-protein ligase XIAP; assay: Counter Screen using XIAP-Bir3 for Chemical Antagonists of Bir1/2 domains of IAP-family anti-apoptotic proteins. [Related pubchem assays (depositor defined):AID1018, AID1449, AID1514, AID1638, AID1749, AID1750, AID488957, AID488963]
[6] = target: Voltage-dependent T-type calcium channel subunit alpha-1H (Homo sapiens, UniProt O95180); assay: Cav3.2 T-type channel inhibitors, synthesized analogs, SAR follow-up, cell-based, synthetic library set 2, HEK293 HH8, Fluo-4 (AID 493023); format: functional
Voltage-dependent T-type calcium channel subunit alpha-1H, sequence (O95180 whole entry): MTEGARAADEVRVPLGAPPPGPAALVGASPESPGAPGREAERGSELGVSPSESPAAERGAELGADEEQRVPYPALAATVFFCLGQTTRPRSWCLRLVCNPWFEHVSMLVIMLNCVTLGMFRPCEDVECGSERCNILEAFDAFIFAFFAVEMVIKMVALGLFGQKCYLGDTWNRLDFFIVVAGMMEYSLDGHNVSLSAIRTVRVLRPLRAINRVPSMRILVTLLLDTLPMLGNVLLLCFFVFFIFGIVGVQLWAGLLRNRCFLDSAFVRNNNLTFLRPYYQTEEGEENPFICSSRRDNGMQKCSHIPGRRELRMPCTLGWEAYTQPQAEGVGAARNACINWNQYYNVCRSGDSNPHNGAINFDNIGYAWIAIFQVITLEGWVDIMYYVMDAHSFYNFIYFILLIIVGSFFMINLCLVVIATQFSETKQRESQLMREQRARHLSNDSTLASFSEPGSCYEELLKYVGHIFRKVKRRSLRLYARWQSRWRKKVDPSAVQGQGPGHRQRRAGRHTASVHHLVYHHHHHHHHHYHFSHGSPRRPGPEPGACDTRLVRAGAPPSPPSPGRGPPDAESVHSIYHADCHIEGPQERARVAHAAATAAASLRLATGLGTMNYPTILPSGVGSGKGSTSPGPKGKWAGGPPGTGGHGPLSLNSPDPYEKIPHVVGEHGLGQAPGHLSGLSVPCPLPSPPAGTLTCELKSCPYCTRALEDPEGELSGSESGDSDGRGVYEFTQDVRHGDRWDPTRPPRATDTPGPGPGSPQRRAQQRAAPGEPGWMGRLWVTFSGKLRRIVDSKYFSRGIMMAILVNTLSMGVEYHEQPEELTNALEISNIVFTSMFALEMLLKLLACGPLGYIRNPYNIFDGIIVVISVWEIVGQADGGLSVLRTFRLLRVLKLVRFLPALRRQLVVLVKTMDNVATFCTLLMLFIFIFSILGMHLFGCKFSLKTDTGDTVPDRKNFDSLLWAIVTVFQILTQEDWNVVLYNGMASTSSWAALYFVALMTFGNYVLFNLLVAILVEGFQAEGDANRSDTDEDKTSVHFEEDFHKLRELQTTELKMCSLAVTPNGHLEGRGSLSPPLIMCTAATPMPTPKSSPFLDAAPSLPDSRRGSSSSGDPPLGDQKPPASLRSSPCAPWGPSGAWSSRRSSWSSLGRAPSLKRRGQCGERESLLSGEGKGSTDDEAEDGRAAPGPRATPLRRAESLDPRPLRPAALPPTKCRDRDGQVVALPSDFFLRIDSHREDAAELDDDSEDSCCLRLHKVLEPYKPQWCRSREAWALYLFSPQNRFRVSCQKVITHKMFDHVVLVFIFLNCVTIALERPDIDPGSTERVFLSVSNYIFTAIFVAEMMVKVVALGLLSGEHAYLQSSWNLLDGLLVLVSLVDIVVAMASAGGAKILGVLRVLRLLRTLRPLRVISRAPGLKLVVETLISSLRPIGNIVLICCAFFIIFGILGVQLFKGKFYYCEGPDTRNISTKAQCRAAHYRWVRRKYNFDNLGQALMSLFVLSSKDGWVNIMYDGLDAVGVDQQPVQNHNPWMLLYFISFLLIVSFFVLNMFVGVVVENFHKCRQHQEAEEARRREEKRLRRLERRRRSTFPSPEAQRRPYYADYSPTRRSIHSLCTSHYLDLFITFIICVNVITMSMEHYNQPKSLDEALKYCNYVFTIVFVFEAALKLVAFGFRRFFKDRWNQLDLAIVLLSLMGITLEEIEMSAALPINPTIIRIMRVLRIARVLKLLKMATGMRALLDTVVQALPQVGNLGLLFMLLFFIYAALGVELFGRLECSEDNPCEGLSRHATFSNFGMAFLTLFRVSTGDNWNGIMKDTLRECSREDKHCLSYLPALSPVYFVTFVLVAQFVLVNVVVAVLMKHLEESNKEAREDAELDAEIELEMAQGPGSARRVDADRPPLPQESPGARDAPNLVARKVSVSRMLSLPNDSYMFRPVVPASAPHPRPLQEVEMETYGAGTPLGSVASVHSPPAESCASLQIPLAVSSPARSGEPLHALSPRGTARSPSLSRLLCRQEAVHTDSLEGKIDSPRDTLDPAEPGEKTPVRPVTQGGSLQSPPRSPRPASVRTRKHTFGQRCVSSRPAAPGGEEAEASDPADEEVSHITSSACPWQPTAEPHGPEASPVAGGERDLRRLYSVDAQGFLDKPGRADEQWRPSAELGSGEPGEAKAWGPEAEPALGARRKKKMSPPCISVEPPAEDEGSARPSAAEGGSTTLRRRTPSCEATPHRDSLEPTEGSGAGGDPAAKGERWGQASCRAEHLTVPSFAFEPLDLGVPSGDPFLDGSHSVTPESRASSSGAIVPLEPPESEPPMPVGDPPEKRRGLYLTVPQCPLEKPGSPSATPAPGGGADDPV

T3 sequence (P98170 whole entry): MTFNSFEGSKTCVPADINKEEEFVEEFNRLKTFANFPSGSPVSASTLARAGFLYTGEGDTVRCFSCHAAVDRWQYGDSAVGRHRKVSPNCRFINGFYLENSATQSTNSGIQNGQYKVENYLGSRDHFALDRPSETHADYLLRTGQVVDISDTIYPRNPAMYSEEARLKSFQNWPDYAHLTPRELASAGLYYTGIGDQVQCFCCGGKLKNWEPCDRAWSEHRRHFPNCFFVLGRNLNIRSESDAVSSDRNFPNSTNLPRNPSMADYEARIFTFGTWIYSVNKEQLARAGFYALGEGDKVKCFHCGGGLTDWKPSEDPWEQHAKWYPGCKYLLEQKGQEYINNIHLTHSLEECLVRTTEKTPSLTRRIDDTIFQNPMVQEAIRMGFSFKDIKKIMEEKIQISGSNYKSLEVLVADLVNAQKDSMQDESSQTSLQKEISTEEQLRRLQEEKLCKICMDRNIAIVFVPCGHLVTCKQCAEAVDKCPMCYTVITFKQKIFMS
Runt-related transcription factor 1/Core-binding factor subunit beta, sequence (Q01196 whole entry, the tested form may be a part): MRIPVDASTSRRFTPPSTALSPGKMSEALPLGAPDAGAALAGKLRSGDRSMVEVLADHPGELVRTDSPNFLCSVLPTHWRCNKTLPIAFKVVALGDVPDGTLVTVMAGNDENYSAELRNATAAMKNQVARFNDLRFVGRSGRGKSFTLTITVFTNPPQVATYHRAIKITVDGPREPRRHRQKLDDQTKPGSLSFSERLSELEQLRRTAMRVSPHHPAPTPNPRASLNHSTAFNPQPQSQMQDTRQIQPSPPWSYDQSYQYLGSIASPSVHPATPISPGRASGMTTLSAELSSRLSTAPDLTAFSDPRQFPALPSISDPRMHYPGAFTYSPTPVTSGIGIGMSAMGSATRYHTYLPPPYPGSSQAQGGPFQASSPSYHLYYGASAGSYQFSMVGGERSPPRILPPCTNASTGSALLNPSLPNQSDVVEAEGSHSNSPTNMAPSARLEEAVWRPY
Runt-related transcription factor 1/Core-binding factor subunit beta, sequence (Q13951 whole entry, the tested form may be a part): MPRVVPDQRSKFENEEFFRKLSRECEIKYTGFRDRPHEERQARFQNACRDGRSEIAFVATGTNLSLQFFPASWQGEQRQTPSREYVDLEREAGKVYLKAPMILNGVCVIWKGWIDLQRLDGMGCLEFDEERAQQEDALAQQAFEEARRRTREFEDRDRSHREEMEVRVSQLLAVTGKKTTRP

CCS(=O)(=O)Nc1ccc(-c2nc3cccnc3s2)cc1
IC50 [1]: 12.8 µM (active) | EC50 [2]: 92.9 µM (active) | EC50 [3]: > 53 µM (inactive)

O=C1C2C3c4ccccc4C(c4ccccc43)C2C(=O)N1c1ccncc1 (stereo unspecified)
IC50 [4]: > 100 µM (not active) | IC50 [5]: > 100 µM (inactive)

O=C(COc1ccc(F)c(Cl)c1)N[C@H]1CCCN(Cc2ccccc2)C1
EC50 [6]: 10 µM (active)
